Publication PMC8273887 (Journal of Medicinal Chemistry, 2021)

Columns and labels:
[1] = Stability in simulated intestinal fluid (SIF); assay type: in vitro ADME; details: pig, simulated intestinal fluid (SIF) with porcine pancreatin, pH 6.8, 15 μL of 1 mM peptide stock in 285 μL SIF, 37 °C, samples 0 min-24 h quenched with 5% aqueous TFA, RP-HPLC/LC-MS peak area as % of time 0, exponential one-phase decay fit, read-out: t1/2 in SIF
Procedure, shortened: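 Peptides incubated at 37 °C in SGF (pepsin, pH 1.3) or SIF (porcine pancreatin, pH 6.8), sampled from 0 min to 24 h. Remaining peptide quantified by RP-HPLC peak area as % of time 0, with t1/2 from one-phase exponential decay fit. Metabolites identified by LC-MS.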

SH-SY5Y cells = test: Antiapoptotic assay (etoposide-induced cell death, caspase-3/7 activity); assay type: cell-based, human; details: etoposide 10 μM and peptide 10 μM added at the same time, caspase-3/7 activity after 6 h, n ≥ 3 independent experiments
Description: (A) Cell death was induced with etoposide (10 μM), and cells were treated with 10 μM of TFF3. Etoposide and TFF3 were added at the same time. Caspase-3/7 activity was measured after 6 h. […] Z-DEVD-FMK (50 μM; caspase-3 inhibitor) was used as the positive control. E: etoposide, E + C3I: etoposide + caspase-3 inhibitor. One-way analysis of variance (ANOVA) followed by Dunnett correction was performed to assess differences between treated cells and etoposide only. *p < 0.05, **p < 0.01.
SH-SY5Y cells were seeded (13–15 × 10^3 cells/well) in 96-well microplates in DMEM with 10% (v/v) fetal calf serum (FCS; Gibco), 2 mM L-glutamine, and 100 units/mL penicillin/streptomycin. The media was replaced with low riboflavin, complete Ham’s F12 medium with 10% (v/v) fetal calf serum, 2 mM L-glutamine, and 100 units/mL penicillin/streptomycin before the live-cell imaging. Cells were treated with the etoposide or the caspase-3 inhibitor or TFF3(C^57Acm) or TFF3 homodimer in the presence of IncuCyte caspase-3/7 green apoptosis reagent. Data were acquired using an IncuCyte ZOOM instrument with standard scan type setting (4 images per well) every 2 h for 48 h.

In the case of CC[C@H](C)[C@@H]1NC(=O)[C@H](CCCNC(=N)N)NC(=O)[C@H](CO)NC(=O)[C@H](CC(=O)O)NC(=O)[C@H](Cc2ccccc2)NC(=O)[C@@H]2CSSC[C@H](NC(=O)[C@H](CCC(N)=O)NC(=O)[C@H](CC(N)=O)NC(=O)[C@H](C)NC(=O)[C@H](CO)NC(=O)[C@H](CC(C)C)NC(=O)CNC(=O)[C@@H](NC(=O)[C@H](Cc3ccc(O)cc3)NC(=O)[C@H](CCC(=O)O)NC(=O)[C@@H](N)CCC(=O)O)C(C)C)C(=O)N[C@@H](C)C(=O)N[C@@H](C(C)C)C(=O)N3CCC[C@H]3C(=O)N[C@@H](C)C(=O)N[C@@H](CCCCN)C(=O)N[C@@H](CC(=O)O)C(=O)N[C@@H](CCCNC(=N)N)C(=O)N[C@@H](C(C)C)C(=O)N[C@@H](CC(=O)O)C(=O)N[C@H]3CSSC[C@H](NC(=O)CNC(=O)[C@H](CCCNC(=N)N)NC(=O)[C@H](CC(N)=O)NC(=O)[C@H](CC(N)=O)NC(=O)[C@H](CSSC[C@@H](C(=O)N[C@@H](Cc4ccccc4)C(=O)N[C@@H](CCCCN)C(=O)N4CCC[C@H]4C(=O)N[C@@H](CC(C)C)C(=O)N[C@@H](CCC(N)=O)C(=O)N[C@@H](CCC(=O)O)C(=O)N[C@@H](C)C(=O)N[C@@H](CCC(=O)O)C(=O)N[C@@H](CSCNC(C)=O)C(=O)N[C@H](C(=O)N[C@@H](Cc4ccccc4)C(=O)O)[C@@H](C)O)NC(=O)[C@H](Cc4c[nH]c5ccccc45)NC(=O)[C@@H]4CCCN4C(=O)[C@H](C(C)C)NC(=O)CNC(=O)[C@@H]4CCCN4C1=O)NC(=O)[C@H](CCC(=O)O)NC(=O)[C@H](CCCCN)NC(=O)[C@@H]1CCCN1C(=O)[C@H]([C@@H](C)O)NC(=O)[C@H](C(C)C)NC(=O)[C@H](Cc1c[nH]cn1)NC(=O)[C@@H]1CCCN1C(=O)[C@H](Cc1ccc(O)cc1)NC(=O)CNC3=O)C(=O)N2 [TFF3(C^57Acm)], the half-life at 50 μM [1] is reported as < 5 min and the “reduction of etoposide-induced cell death (caspase-3/7 active objects)” value (SH-SY5Y cells) is reported as “statistically significant (p < 0.05) reduction in cell death”.
